Earlier results in article PMC6095608 (PLoS ONE, 2018).

Tested on: rats
Conditions: co-administered trimethoprim; cited from earlier work

## COc1cc(Cc2cnc(N)nc2N)cc(OC)c1OC [trimethoprim]
  Effect on lamivudine accumulation in the renal cortex: did not impair
